Laboratory results from ChEMBL document CHEMBL1201862, “PubChem BioAssay data set” (2004).
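Where inhibition never reached the appropriate level, the endpoint shown equals the highest concentration tested. Otherwise, values were interpolated linearly from a five-concentration, 48-hour dose response in 96-well plates. The concentration for 50% growth inhibition is given as GI50.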 Calls of active or inactive are those of the source. No stated cut-off is given here; in the data, active = GI50 up to about 1.1 µM and inactive = higher.

Key:
Test in all cases: DTP human tumour cell line panel, 48 h
[1] = test system: 786-0
[2] = test system: A498
[3] = test system: A549
[4] = test system: ACHN
[5] = test system: CCRF-CEM
[6] = test system: COLO 205
[7] = test system: DLD-1
[8] = test system: DMS-114
[9] = test system: DMS-273
[10] = test system: EKVX
[11] = test system: HCC 2998
[12] = test system: HCT-116
[13] = test system: HCT-15
[14] = test system: HL-60
[15] = test system: HOP-18
[16] = test system: HOP-62
[17] = test system: HOP-92
[18] = test system: HT-29
[19] = test system: IGROV-1
[20] = test system: K562
[21] = test system: KM-20L2
[22] = test system: LXFL 529
[23] = test system: M14
[24] = test system: M19-MEL
[25] = test system: MOLT-4
[26] = test system: Malme-3M
[27] = test system: NCI-H226
[28] = test system: NCI-H23
[29] = test system: NCI-H522
[30] = test system: OVCAR-4
[31] = test system: OVCAR-8
[32] = test system: RPMI-8226
[33] = test system: RXF 393
[34] = test system: SF-268
[35] = test system: SF-295
[36] = test system: SF-539
[37] = test system: SK-MEL-28
[38] = test system: SK-MEL-5
[39] = test system: SK-OV-3
[40] = test system: SN12C
[41] = test system: SNB-19
[42] = test system: SNB-75
[43] = test system: SNB-78
[44] = test system: SR
[45] = test system: SW-620
[46] = test system: U-251
[47] = test system: UACC-257
[48] = test system: UACC-62
[49] = test system: UO-31
[50] = test system: XF498
[51] = test system: CAKI-1
[52] = test system: KM12
[53] = test system: LOX IMVI
[54] = test system: NCI-H460
[55] = test system: OVCAR-3
[56] = test system: OVCAR-5
[57] = test system: SK-MEL-2
[58] = test system: TK-10

## CSc1ccc(NC(=O)C2c3[nH]c4ccccc4c3C3CCC(C(C)(C)C)CC3C2C(=O)O)cc1 (stereo not drawn)
[1]
  GI50: 17.5 µM (inactive)
[2]
  GI50: 17.9 µM (inactive)
[3]
  GI50: 15.2 µM (inactive)
[4]
  GI50: 15.3 µM (inactive)
[5]
  GI50: 10.7 µM (inactive)
[6]
  GI50: 18 µM (inactive)
[7]
  GI50: 12.6 µM (inactive)
[8]
  GI50: 19.8 µM (inactive)
[9]
  GI50: 16.4 µM (inactive)
[10]
  GI50: 24.3 µM (inactive)
[11]
  GI50: 33 µM (inactive)
[12]
  GI50: 14.4 µM (inactive)
[13]
  GI50: 29.2 µM
[14]
  GI50: 9.42 µM (inactive)
[15]
  GI50: 16.9 µM (inactive)
[16]
  GI50: 16.9 µM (inactive)
[17]
  GI50: 23.2 µM (inactive)
[18]
  GI50: 16.5 µM (inactive)
[19]
  GI50: 17 µM (inactive)
[20]
  GI50: 32.3 µM (inactive)
[21]
  GI50: 16.3 µM (inactive)
[22]
  GI50: 15.9 µM (inactive)
[23]
  GI50: 18.4 µM (inactive)
[24]
  GI50: 21.1 µM (inactive)
[25]
  GI50: 15.1 µM (inactive)
[26]
  GI50: 20.9 µM (inactive)
[27]
  GI50: 15.3 µM (inactive)
[28]
  GI50: 20.1 µM (inactive)
[29]
  GI50: 15 µM (inactive)
[30]
  GI50: 18.4 µM (inactive)
[31]
  GI50: 14.8 µM (inactive)
[32]
  GI50: 20.3 µM (inactive)
[33]
  GI50: 20 µM (inactive)
[34]
  GI50: 18.9 µM (inactive)
[35]
  GI50: 17.6 µM (inactive)
[36]
  GI50: 19.7 µM (inactive)
[37]
  GI50: 22.9 µM (inactive)
[38]
  GI50: 21.1 µM (inactive)
[39]
  GI50: 16.5 µM (inactive)
[40]
  GI50: 18.6 µM (inactive)
[41]
  GI50: 30.5 µM (inactive)
[42]
  GI50: 17.2 µM (inactive)
[43]
  GI50: 17.2 µM (inactive)
[44]
  GI50: 11.5 µM (inactive)
[45]
  GI50: 17.7 µM (inactive)
[46]
  GI50: 15 µM (inactive)
[47]
  GI50: 34.1 µM (inactive)
[48]
  GI50: 17.4 µM (inactive)
[49]
  GI50: 17.5 µM (inactive)
[50]
  GI50: 17.9 µM (inactive)

## CCc1ccc(Nc2cc(=O)[nH]c(=S)n2C)cc1
[1]
  GI50: > 100 µM (inactive)
[2]
  GI50: > 100 µM (inactive)
[3]
  GI50: > 100 µM (inactive)
[51]
  GI50: > 100 µM (inactive)
[5]
  GI50: > 100 µM (inactive)
[6]
  GI50: > 100 µM (inactive)
[7]
  GI50: > 100 µM (inactive)
[8]
  GI50: > 100 µM (inactive)
[9]
  GI50: > 100 µM (inactive)
[10]
  GI50: 88.3 µM (inactive)
[12]
  GI50: > 100 µM (inactive)
[13]
  GI50: > 100 µM
[14]
  GI50: > 100 µM (inactive)
[15]
  GI50: > 100 µM (inactive)
[16]
  GI50: > 100 µM (inactive)
[17]
  GI50: > 100 µM (inactive)
[18]
  GI50: > 100 µM (inactive)
[19]
  GI50: > 100 µM (inactive)
[20]
  GI50: > 100 µM (inactive)
[21]
  GI50: > 100 µM (inactive)
[52]
  GI50: > 100 µM (inactive)
[53]
  GI50: > 100 µM (inactive)
[22]
  GI50: > 100 µM (inactive)
[23]
  GI50: > 100 µM (inactive)
[24]
  GI50: > 100 µM (inactive)
[25]
  GI50: > 100 µM (inactive)
[26]
  GI50: > 100 µM (inactive)
[27]
  GI50: > 100 µM (inactive)
[28]
  GI50: > 100 µM (inactive)
[54]
  GI50: > 100 µM (inactive)
[29]
  GI50: > 100 µM (inactive)
[55]
  GI50: > 100 µM (inactive)
[30]
  GI50: > 100 µM (inactive)
[56]
  GI50: > 100 µM (inactive)
[31]
  GI50: > 100 µM (inactive)
[32]
  GI50: > 100 µM (inactive)
[33]
  GI50: > 100 µM (inactive)
[34]
  GI50: > 100 µM (inactive)
[35]
  GI50: > 100 µM (inactive)
[36]
  GI50: > 100 µM (inactive)
[57]
  GI50: > 100 µM (inactive)
[38]
  GI50: > 100 µM (inactive)
[39]
  GI50: > 100 µM (inactive)
[40]
  GI50: > 100 µM (inactive)
[41]
  GI50: > 100 µM (inactive)
[42]
  GI50: 46.3 µM (inactive)
[43]
  GI50: > 100 µM (inactive)
[44]
  GI50: > 100 µM (inactive)
[45]
  GI50: > 100 µM (inactive)
[58]
  GI50: > 100 µM (inactive)
[46]
  GI50: > 100 µM (inactive)
[47]
  GI50: > 100 µM (inactive)
[48]
  GI50: > 100 µM (inactive)
[49]
  GI50: > 100 µM (inactive)
[50]
  GI50: > 100 µM (inactive)

## CN(C)/N=N/c1ccc(C(N)=O)cc1
[1]
  GI50: > 100 µM (inactive)
[2]
  GI50: > 100 µM (inactive)
[3]
  GI50: > 100 µM (inactive)
[4]
  GI50: > 100 µM (inactive)
[51]
  GI50: > 100 µM (inactive)
[5]
  GI50: > 100 µM (inactive)
[6]
  GI50: > 100 µM (inactive)
[7]
  GI50: > 100 µM (inactive)
[8]
  GI50: > 100 µM (inactive)
[9]
  GI50: > 100 µM (inactive)
[10]
  GI50: > 100 µM (inactive)
[11]
  GI50: > 100 µM (inactive)
[12]
  GI50: > 100 µM (inactive)
[13]
  GI50: > 100 µM
[14]
  GI50: > 100 µM (inactive)
[15]
  GI50: > 100 µM (inactive)
[16]
  GI50: > 100 µM (inactive)
[17]
  GI50: > 100 µM (inactive)
[18]
  GI50: > 100 µM (inactive)
[19]
  GI50: > 100 µM (inactive)
[20]
  GI50: > 100 µM (inactive)
[21]
  GI50: > 100 µM (inactive)
[52]
  GI50: > 100 µM (inactive)
[53]
  GI50: > 100 µM (inactive)
[22]
  GI50: > 100 µM (inactive)
[23]
  GI50: > 100 µM (inactive)
[24]
  GI50: > 100 µM (inactive)
[25]
  GI50: > 100 µM (inactive)
[26]
  GI50: > 100 µM (inactive)
[27]
  GI50: > 100 µM (inactive)
[28]
  GI50: > 100 µM (inactive)
[54]
  GI50: > 100 µM (inactive)
[29]
  GI50: > 100 µM (inactive)
[55]
  GI50: > 100 µM (inactive)
[30]
  GI50: > 100 µM (inactive)
[56]
  GI50: > 100 µM (inactive)
[31]
  GI50: > 100 µM (inactive)
[32]
  GI50: > 100 µM (inactive)
[33]
  GI50: > 100 µM (inactive)
[34]
  GI50: > 100 µM (inactive)
[35]
  GI50: > 100 µM (inactive)
[36]
  GI50: > 100 µM (inactive)
[37]
  GI50: > 100 µM (inactive)
[57]
  GI50: > 100 µM (inactive)
[38]
  GI50: > 100 µM (inactive)
[39]
  GI50: > 100 µM (inactive)
[40]
  GI50: > 100 µM (inactive)
[41]
  GI50: > 100 µM (inactive)
[42]
  GI50: 97.7 µM (inactive)
[43]
  GI50: > 100 µM (inactive)
[44]
  GI50: > 100 µM (inactive)
[45]
  GI50: > 100 µM (inactive)
[58]
  GI50: > 100 µM (inactive)
[46]
  GI50: > 100 µM (inactive)
[47]
  GI50: > 100 µM (inactive)
[48]
  GI50: > 100 µM (inactive)
[49]
  GI50: > 100 µM (inactive)
[50]
  GI50: > 100 µM (inactive)
